# Key:
# [1] = tested on: mitochondria within isolated cells; settings: in vitro; cited from earlier work
# [2] = tested on: DDC intoxicated mice; assay: Serum parameters of liver damage in DDC intoxicated mice; format: in vivo, mouse; settings: DDC 3 days, simultaneous MitoQ 3, 6 and 12 mg/kg
# Description: In serum from various animal groups the activity of serum liver enzymes indicating liver damage, namely bilirubin, alanine aminotransferase (ALT/GPT; in diagram represented by white bars), aspartate aminotransferase (ASAT/GOT in diagram represented by black bars) are determined according to standard protocols in clinical diagnostics by employing commercially available kits (No: 11552414; 11876805216; 11876848216 all purchased by Roche AG, Switzerland) on a Hitachi/Roche 917 Analyser.
# In serum from various tested animal groups following parameters indicating liver damage, namely bilirubin, alanine aminotransferase (ALT/GPT), aspartate aminotransferase (ASAT/GOT) and glutamate dehydrogenase (GLDH) are determined according to standard protocols in clinical diagnostics employing commercially available kits (No: 11552414; 11876805216; 11876848216; 11929992 all purchased by Roche AG, Switzerland) on a Hitachi/Roche 917 Analyser.
# [3] = fed in drinking water for 3 to 7 days, 500 μM or 1 mM (MitoVit E 500 μM); cited from earlier work
# [4] = tested on: human epithelial cell cancer xenografts; assay: Nude mice tumor xenografts; format: in vivo, mouse
# Description: Tumor cell lines or primary tumors that are xenografted subcutaneously according to standard methods (Li K. et al., 2003, Cancer Res., 63(13): 3593-3597) include colon adenocarcinomas, invasive ductal carcinomas of the breast, small and non-small cell lung carcinoma, prostate tumors, pancreatic tumors and stomach tumors.
# Tumor-derived cell lines (grown in DMEM/10% FBS) are harvested in log-phase growth, washed twice with PBS, resuspended in 1 ml PBS (2.5×10^7 cells/ml), and injected subcutaneously into the right flank of a nude mouse (Hsd: athymic nu/nu, Harlan Winkelmann; aged between 5 and 6 weeks) at 5×10^6 cells/mouse (0.2 ml). Tumor growth is monitored every other day for the indicated periods (depending on the cell type). Tumor size is determined by the product of two perpendicular diameters and the height above the skin surface.
# [5] = according to Jauslin M. L. et al., 2003, FASEB J.; cited from earlier work
# [6] = tested on: fatty acid binding protein (FABP); assay: Western blot of fatty acid binding protein in DDC intoxicated mice; format: in vivo, mouse; settings: MitoQ treatment of DDC intoxicated animals
# Description: The protein expression level(s) of fatty acid binding protein (FABP) representing a sensitive marker for hepatocyte damage (Monbaliu D . et al., 2005, Transplant Proc. 37(1):413-416) is determined.
# [7] = tested on: HepG2 cells; assay: ROS production (DCF fluorescence) in HepG2 cells, basal and CoCl2 stimulated; format: cell-based, human
# Description: Alternatively, the generation of ROS is measured by using the fluoroprobe 5-(and-6)-chloromethyl-2′,7′-dichlorodihydrofluorescein diacetate acetyl ester (CM-H2DCFDA, Molecular Probes, Goettingen, Germany) which is converted to fluorescent dichlorofluorescien (DCF; Djordjevic T. et al., 2004, Antioxidants & Redox Signaling, 6: 713-720). To determine DCF fluorescence in a microplate reader (Tecan, Crailsheim, Germany), cells (e.g. HepG2, Hep3B or SNU-398) are grown in 96-well plates to 80% confluency. […] After several washes with HBSS to remove excess dye, fluorescence is monitored by using 480 nm excitation and 540 nm emission wavelength. DCF fluorescence is standardized to the number of viable cells using the Alamar Blue test according to the manufacturer's instructions (Biosource, Nivelles, Belgium). […] The absorbance is then measured at the wavelength of […].
# In another experiment HepG2 stimulated by 100 μM CoCl2 (Sigma) are used (Bel Aiba R. S. et al., 2004,. Biol Chem. 385:249-57). […] The fluorescence is measured in a plate-reader (Tecan Safire) after 0, 10, 20 and 30 minutes (Djordjevic T, et al., 2005, Free Radic Biol Med. 38:616-30).
substance,measurement,setting,value
MitoQ,accumulation by mitochondria,[1],rapidly and selectively accumulated by mitochondria
same,alanine aminotransferase (ALT/GPT) serum activity,[2],most prominent reduction
same,aspartate aminotransferase (AST/GOT) serum activity,[2],reduction of enzymatic activity
same,bilirubin in serum,[2]; data not shown,remains without any changes
same,gross signs of toxicity,[3],without any gross signs of toxicity
same,growth of tumors,[4],reduced growth of tumors
same,necrosis of the tumors,[4],increased necrosis of the tumors
same,vascularization of the tumor xenografts,[4],decreased vascularization
same,EC50,[5],510 pM
same,FABP protein expression,[6],reaches almost control mice FABP protein expression values
same,CoCl2-stimulated ROS production (relative DCF fluorescence),"[7]; HepG2 cells, 100 μM CoCl2, 5 μM MitoQ",significantly decrease
same,basal ROS production (relative DCF fluorescence),"[7]; unstimulated HepG2 cells, 5 μM MitoQ",significantly decrease

# Source: patent US20070225255A1, “Use of Mitochondrially Targeted Antioxidant in the Treatment of Liver Diseases and Epithelial Cancers” (priority 2004, published 2007)
